Experiment [1] has as its target T1, GES-1 (Guiana extended-spectrum β-lactamase 1) (Klebsiella pneumoniae, UniProt Q9KJY7).
T1 construct: pOPIN-F, expressed in SoluBL21 (DE3) E. coli
Description: ([…] Å), mass spectrometry; IC50 by nitrocefin hydrolysis, […] min pre-incubation. The experiment is classed as biochemical.

In experiment [2] the target is T1, GES-1 (Guiana extended-spectrum β-lactamase 1). In words: ([…] Å; […] Da aldehyde fragment on Ser70), mass spectrometry; IC50 by nitrocefin hydrolysis, […] min pre-incubation. Type of experiment: biochemical.

Molecules are shown by their SMILES.

T1 sequence (Q9KJY7 18-287): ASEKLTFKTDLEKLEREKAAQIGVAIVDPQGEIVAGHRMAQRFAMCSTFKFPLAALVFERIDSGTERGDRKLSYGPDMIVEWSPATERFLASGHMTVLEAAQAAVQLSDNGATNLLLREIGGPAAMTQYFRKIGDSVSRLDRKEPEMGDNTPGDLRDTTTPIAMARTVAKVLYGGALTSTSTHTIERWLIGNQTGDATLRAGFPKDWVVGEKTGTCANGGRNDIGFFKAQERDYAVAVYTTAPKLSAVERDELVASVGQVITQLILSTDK

As usually defined, the IC50 is the concentration that gives 50% inhibition. A higher IC50 goes with a need for much substance. For the compound `C[n+]1ccn(C[C@@]2(C)[C@H](C(=O)O)N3C(=O)C[C@H]3S2(=O)=O)n1` [enmetazobactam], the midpoint of inhibition in experiment [1], the IC50, lay at 107 nM.

Consider `C[C@]1(Cn2ccnn2)[C@H](C(=O)O)N2C(=O)C[C@H]2S1(=O)=O` [tazobactam], for which the IC50 in experiment [2] is 444 nM. This counts as sub-micromolar.

Source of the values: article PMC12643063, “Mechanistic basis for inhibition of the extended‐spectrum β‐lactamase GES‐1 by enmetazobactam and tazobactam” (Febs Letters, 2025).
